Measurements taken from patent publication US11236102B2, “Oxabicycloheptane prodrugs” (Lixte Biotechnology, Inc., priority 2015, dated 2022).

Key:
[1] = in vivo; settings: rat, iv, 1.4 mg/kg; for Kp at 0.25 hr / Kp at 1 hr / Kp at 2 hr: Liver-plasma concentration ratio of Endothal
Description: 113 was dissolved in 4% NaHCO3 in saline for IV administration. The detailed procedure of dosing solution preparation was presented in Appendix I.
15 animals were placed on the study. The animals in IV arm were free access to food and water. For PO dose group, the animals were fasted overnight prior to dosing and the food was resumed 4 hours postdose.
The IV injection was conducted via foot dorsal vein. PO via oral gavage.
(§1) Blood collection: The animal is restrained manually. Approximately 200 μL of blood/time point is collected into sodium heparin tube via cardiac puncture for terminal bleeding (anesthetized under carbon dioxide). Blood sample will be put on ice and centrifuged to obtain plasma sample (2000 g, 5 min under 4° C.) within 10 minutes.
(§2) Liver collection: The animal will be euthanized with carbon dioxide inhalation. Open abdominal cavity with scissor to expose internal organs. Hold the carcass in an upright position and allow the organs to fall forward. Cut the connective tissues and remove the organs. Then the organs are rinsed with cold saline, dried on filtrate paper, placed into a screw-top tube and weighed, snap frozen by placing into dry-ice immediately.
Brain collection: Make a mid-line incision in the animals scalp and retract the skin. Using small bone cutters and rongeurs, remove the skull overlying the brain. Remove the brain using a spatula and rinse with cold saline, dried on filtrate paper, placed into a screw-top tube and weighed, snap frozen by placing into dry-ice immediately. […] Plasma, brain and liver samples were stored at approximately −80° C. until analysis. The backup samples will be discarded after three weeks after in-life completion unless requested. The unused dosing solutions will be discarded within three weeks after completion of the study.
Pharmacokinetic Analysis Software: The PK parameters were determined by non-compartmental model of non-compartmental analysis tool, Pharsight Phoenix WinNonlin® 6.2 software. […] Concentration data within 80%-120% of LLOQ was considered within normal instrumental variation and presented in the results. Terminal t1/2 calculation: Time points were automatic selected by “best fit” model for terminal half life estimation as the first option. Manual selection was applied when “best fit” could not well define the terminal phase. Results

[2] = in vivo; parameters: species or system SD rats; settings: rat, in vivo, iv, 1 mg/kg
Description: 105 was dissolved in 4% NaHCO3 in saline for IV administration. The detailed procedure of dosing solution preparation was presented in Appendix I.
Thirteen (13) animals were placed on the study. The animals in IV arm were free access to food and water. One extra animal was used for blank liver and plasma generation (5 mL per animal). The resulting blank liver and plasma was then applied to the development of bioanalytical method and sample bioanalysis for the entire study.
The IV injection was conducted via foot dorsal vein. Animals were free access to food and water before dose.
as §1, with “The” for “Blood collection: The”, “Approximately 150” for “Approximately 200”
as §2, with “The” for “Liver collection: The”
Plasma and liver samples were stored at approximately −80° C. until analysis. The backup samples will be discarded after three weeks after in-life completion unless requested. The unused dosing solutions will be discarded within three weeks after completion of the study
Software: The PK parameters were determined by non-compartmental model of non-compartmental analysis tool, Pharsight Phoenix WinNonlin® 6.2 software.
Concentration data within 80%-120% of LLOQ was considered within normal instrumental variation and presented in the results. Terminal t1/2 calculation: Time points were automatic selected by “best fit” model for terminal half life estimation as the first option. Manual selection was applied when “best fit” could not well define the terminal phase.

[3] = male, SD, liver concentration of Endothal

O=C(O)C1C2CCC(O2)C1C(=O)O (centres unmarked) [Endothal, 7-oxabicyclo[2.2.1]heptane-2,3-dicarboxylic acid]
Kp at 0.25 hr ([1]; male, SD): 29.2
Kp at 1 hr ([1]; male, SD): 27.9
Kp at 2 hr ([1]; male, SD): 23
Kp at 0.25 hr ([1]; male, SD, 113 IV 1.4 mg/kg, SD rats, 0.25 hr, mean): 22.7
Kp at 1 hr ([1]; male, SD, 113 IV 1.4 mg/kg, SD rats, 1 hr, individual): 21.7
Kp at 2 hr ([1]; male, SD, 113 IV 1.4 mg/kg, SD rats, 2 hr, individual): 45.7
concentration at 0.25 hr [1, 3]: 727 ng/g
concentration at 1 hr [1, 3]: 902 ng/g
concentration at 2 hr [1, 3]: 998 ng/g
concentration at 6 hr [1, 3]: 526 ng/g
concentration at 10 hr [1, 3]: 288 ng/g
concentration at 24 hr [1, 3]: 66.9 ng/g
concentration at 2 hr ([1]; male, SD, plasma concentration of Endothal): 30.4 ng/mL
AUC(0-last) in liver [1]: 8086 ng·h/g
AUC(0-∞) in liver [1]: 8678 ng·h/g
AUC(0-last) in liver [2]: 3152 ng·h/g
AUC(0-∞) in liver [2]: 4896 ng·h/g
